From ChEMBL document CHEMBL4507294, “Data for DCP probe MSD-CYP11B2” (2021)

Key:
[1] = biological target: Ephrin type-B receptor 6 (Homo sapiens) (UniProt O15197); conditions: Compound concentration 1000.0 nM
[2] = biological target: RAC-beta serine/threonine-protein kinase (Homo sapiens) (UniProt P31751); conditions: Compound concentration 1000.0 nM
[3] = biological target: Alpha-2A adrenergic receptor (Homo sapiens) (UniProt P08913); conditions: Compound concentration 10.0 uM
[4] = biological target: 5'-AMP-activated protein kinase catalytic subunit alpha-1 (Homo sapiens) (UniProt Q13131); conditions: Compound concentration 1000.0 nM
[5] = biological target: D(1A) dopamine receptor (Homo sapiens) (UniProt P21728); conditions: Compound concentration 10.0 uM
[6] = biological target: Sodium-dependent dopamine transporter (Homo sapiens) (UniProt Q01959); conditions: Compound concentration 10.0 uM
[7] = biological target: Tyrosine-protein kinase CSK (Homo sapiens) (UniProt P41240); conditions: Compound concentration 1000.0 nM
[8] = biological target: Focal adhesion kinase 1 (Homo sapiens) (UniProt Q05397); conditions: Compound concentration 1000.0 nM
[9] = biological target: Serine/threonine-protein kinase ULK3 (Homo sapiens) (UniProt Q6PHR2); conditions: Compound concentration 1000.0 nM
[10] = biological target: Ephrin type-B receptor 1 (Homo sapiens) (UniProt P54762); conditions: Compound concentration 1000.0 nM
[11] = biological target: Serine/threonine-protein kinase pim-1 (Homo sapiens) (UniProt P11309); conditions: Compound concentration 1000.0 nM
Chain of Serine/threonine-protein kinase pim-1 (Homo sapiens) (P11309 whole entry, looked up): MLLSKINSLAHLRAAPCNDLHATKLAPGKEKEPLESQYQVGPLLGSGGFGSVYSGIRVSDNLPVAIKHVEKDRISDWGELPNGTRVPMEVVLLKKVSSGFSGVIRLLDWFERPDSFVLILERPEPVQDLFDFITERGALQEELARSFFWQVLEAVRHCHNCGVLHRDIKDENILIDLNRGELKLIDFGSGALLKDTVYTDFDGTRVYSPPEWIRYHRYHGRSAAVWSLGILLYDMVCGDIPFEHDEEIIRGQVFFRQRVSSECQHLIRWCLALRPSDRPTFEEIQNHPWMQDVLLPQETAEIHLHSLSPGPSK

[12] = biological target: Cyclin-dependent kinase-like 3 (Homo sapiens) (UniProt Q8IVW4); conditions: Compound concentration 1000.0 nM
Chain of Cyclin-dependent kinase-like 3 (Homo sapiens) (Q8IVW4 whole entry, looked up): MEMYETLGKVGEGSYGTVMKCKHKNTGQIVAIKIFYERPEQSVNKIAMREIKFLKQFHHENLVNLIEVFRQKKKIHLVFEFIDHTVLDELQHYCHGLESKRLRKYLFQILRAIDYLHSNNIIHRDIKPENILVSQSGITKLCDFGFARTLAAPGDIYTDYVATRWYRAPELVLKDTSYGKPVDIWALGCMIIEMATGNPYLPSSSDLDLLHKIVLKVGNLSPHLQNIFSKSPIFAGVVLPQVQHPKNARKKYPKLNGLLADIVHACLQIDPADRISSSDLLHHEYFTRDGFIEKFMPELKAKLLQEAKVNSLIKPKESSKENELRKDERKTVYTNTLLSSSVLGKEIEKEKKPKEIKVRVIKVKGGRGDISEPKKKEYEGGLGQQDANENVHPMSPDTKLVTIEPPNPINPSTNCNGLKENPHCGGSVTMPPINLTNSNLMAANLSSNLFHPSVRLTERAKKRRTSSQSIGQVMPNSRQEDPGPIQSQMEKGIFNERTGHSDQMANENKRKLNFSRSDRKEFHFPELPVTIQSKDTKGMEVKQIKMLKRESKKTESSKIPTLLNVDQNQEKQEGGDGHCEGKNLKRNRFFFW

[13] = biological target: Activin receptor type-1B (Homo sapiens) (UniProt P36896); conditions: Compound concentration 1000.0 nM
[14] = system: Phosphatidylinositol 4,5-bisphosphate 3-kinase catalytic subunit alpha isoform (Homo sapiens), P42336 [H1047Y]; conditions: Compound concentration 1000.0 nM
[15] = biological target: Mitogen-activated protein kinase kinase kinase 12 (Homo sapiens) (UniProt Q12852); conditions: Compound concentration 1000.0 nM
[16] = biological target: Serine/threonine-protein kinase RIO2 (Homo sapiens) (UniProt Q9BVS4); conditions: Compound concentration 1000.0 nM
[17] = system: Leucine-rich repeat serine/threonine-protein kinase 2 (Homo sapiens), Q5S007 [G2019S]; conditions: Compound concentration 1000.0 nM
[18] = biological target: Serine/threonine-protein kinase 33 (Homo sapiens) (UniProt Q9BYT3); conditions: Compound concentration 1000.0 nM
[19] = biological target: Bone morphogenetic protein receptor type-1B (Homo sapiens) (UniProt O00238); conditions: Compound concentration 1000.0 nM
[20] = system: Epidermal growth factor receptor (Homo sapiens), P00533 [G719C]; conditions: Compound concentration 1000.0 nM
[21] = biological target: Calcium-dependent protein kinase 1 (Plasmodium falciparum) (UniProt P62344); conditions: Compound concentration 1000.0 nM
[22] = biological target: Mitogen-activated protein kinase kinase kinase kinase 4 (Homo sapiens) (UniProt O95819); conditions: Compound concentration 1000.0 nM
Chain of Mitogen-activated protein kinase kinase kinase kinase 4 (Homo sapiens) (O95819 2-1239 limits assumed): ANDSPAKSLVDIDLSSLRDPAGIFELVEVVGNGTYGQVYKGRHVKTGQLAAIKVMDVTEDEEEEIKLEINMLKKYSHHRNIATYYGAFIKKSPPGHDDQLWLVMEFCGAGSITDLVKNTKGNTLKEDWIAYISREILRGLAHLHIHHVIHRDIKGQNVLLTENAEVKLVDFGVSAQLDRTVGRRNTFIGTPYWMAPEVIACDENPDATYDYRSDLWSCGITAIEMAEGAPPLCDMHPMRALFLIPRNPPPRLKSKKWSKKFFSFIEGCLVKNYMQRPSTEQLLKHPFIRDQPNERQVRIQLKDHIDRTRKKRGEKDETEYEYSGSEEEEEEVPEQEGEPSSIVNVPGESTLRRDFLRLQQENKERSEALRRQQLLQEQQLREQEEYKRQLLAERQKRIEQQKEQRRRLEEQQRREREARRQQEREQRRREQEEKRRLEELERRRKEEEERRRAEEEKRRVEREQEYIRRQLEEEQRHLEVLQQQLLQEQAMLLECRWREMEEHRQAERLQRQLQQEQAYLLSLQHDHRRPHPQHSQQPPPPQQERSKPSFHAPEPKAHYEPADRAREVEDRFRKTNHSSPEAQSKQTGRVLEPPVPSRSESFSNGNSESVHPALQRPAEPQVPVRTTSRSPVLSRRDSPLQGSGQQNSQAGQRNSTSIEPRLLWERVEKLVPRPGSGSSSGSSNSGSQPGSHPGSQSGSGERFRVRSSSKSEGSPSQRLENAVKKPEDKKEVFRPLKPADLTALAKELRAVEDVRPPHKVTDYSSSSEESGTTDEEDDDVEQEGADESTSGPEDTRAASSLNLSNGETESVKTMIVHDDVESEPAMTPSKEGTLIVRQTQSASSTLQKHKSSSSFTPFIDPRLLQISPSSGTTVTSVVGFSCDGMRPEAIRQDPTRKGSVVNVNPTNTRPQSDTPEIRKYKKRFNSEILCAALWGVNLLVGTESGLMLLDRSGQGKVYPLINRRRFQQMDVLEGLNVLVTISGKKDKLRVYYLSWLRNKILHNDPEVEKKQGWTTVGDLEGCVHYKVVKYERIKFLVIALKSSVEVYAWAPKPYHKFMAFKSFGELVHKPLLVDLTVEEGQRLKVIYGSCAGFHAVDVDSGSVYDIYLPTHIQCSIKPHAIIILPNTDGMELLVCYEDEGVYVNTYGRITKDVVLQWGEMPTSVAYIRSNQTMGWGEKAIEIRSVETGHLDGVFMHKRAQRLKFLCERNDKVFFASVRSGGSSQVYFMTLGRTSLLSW

[23] = system: Receptor-type tyrosine-protein kinase FLT3 (Homo sapiens), P36888 [D835V]; conditions: Compound concentration 1000.0 nM
[24] = biological target: Receptor-interacting serine/threonine-protein kinase 1 (Homo sapiens) (UniProt Q13546); conditions: Compound concentration 1000.0 nM
Chain of Receptor-interacting serine/threonine-protein kinase 1 (Homo sapiens) (Q13546 whole entry): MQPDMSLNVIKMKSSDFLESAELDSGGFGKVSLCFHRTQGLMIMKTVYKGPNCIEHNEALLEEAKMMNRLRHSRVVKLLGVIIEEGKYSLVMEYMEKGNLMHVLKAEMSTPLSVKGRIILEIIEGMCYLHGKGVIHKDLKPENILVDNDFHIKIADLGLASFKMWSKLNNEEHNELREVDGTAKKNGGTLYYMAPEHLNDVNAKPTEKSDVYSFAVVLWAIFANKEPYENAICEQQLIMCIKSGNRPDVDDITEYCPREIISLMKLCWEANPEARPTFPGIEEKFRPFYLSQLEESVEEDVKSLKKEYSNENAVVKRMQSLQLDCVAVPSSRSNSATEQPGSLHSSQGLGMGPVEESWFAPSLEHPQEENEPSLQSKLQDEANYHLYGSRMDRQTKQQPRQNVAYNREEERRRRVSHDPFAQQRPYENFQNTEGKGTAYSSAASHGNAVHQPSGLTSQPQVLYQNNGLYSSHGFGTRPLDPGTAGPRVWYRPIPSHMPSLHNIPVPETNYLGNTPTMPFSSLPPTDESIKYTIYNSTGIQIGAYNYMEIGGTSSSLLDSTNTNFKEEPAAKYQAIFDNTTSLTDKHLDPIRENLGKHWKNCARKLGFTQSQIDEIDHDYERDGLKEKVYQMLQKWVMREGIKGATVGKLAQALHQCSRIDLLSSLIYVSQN

[25] = biological target: Tyrosine-protein kinase SYK (Homo sapiens) (UniProt P43405); conditions: Compound concentration 1000.0 nM
[26] = system: Receptor-type tyrosine-protein kinase FLT3 (Homo sapiens), P36888 [D835Y]; conditions: Compound concentration 1000.0 nM
[27] = biological target: Cyclin-dependent kinase 4 (Homo sapiens) (UniProt P11802); conditions: Compound concentration 1000.0 nM
[28] = biological target: Activin receptor type-2B (Homo sapiens) (UniProt Q13705); conditions: Compound concentration 1000.0 nM
[29] = biological target: Fibroblast growth factor receptor 1 (Homo sapiens) (UniProt P11362); conditions: Compound concentration 1000.0 nM
[30] = system: Tyrosine-protein kinase ABL1 (Homo sapiens), P00519 [T315I]; conditions: Compound concentration 1000.0 nM
[31] = system: Phosphatidylinositol 4,5-bisphosphate 3-kinase catalytic subunit alpha isoform (Homo sapiens), P42336 [E545A]; conditions: Compound concentration 1000.0 nM
[32] = system: Proto-oncogene tyrosine-protein kinase receptor Ret (Homo sapiens), P07949 [V804L]; conditions: Compound concentration 1000.0 nM
Chain of Proto-oncogene tyrosine-protein kinase receptor Ret (Homo sapiens), P07949 [V804L] (P07949 whole entry V804L): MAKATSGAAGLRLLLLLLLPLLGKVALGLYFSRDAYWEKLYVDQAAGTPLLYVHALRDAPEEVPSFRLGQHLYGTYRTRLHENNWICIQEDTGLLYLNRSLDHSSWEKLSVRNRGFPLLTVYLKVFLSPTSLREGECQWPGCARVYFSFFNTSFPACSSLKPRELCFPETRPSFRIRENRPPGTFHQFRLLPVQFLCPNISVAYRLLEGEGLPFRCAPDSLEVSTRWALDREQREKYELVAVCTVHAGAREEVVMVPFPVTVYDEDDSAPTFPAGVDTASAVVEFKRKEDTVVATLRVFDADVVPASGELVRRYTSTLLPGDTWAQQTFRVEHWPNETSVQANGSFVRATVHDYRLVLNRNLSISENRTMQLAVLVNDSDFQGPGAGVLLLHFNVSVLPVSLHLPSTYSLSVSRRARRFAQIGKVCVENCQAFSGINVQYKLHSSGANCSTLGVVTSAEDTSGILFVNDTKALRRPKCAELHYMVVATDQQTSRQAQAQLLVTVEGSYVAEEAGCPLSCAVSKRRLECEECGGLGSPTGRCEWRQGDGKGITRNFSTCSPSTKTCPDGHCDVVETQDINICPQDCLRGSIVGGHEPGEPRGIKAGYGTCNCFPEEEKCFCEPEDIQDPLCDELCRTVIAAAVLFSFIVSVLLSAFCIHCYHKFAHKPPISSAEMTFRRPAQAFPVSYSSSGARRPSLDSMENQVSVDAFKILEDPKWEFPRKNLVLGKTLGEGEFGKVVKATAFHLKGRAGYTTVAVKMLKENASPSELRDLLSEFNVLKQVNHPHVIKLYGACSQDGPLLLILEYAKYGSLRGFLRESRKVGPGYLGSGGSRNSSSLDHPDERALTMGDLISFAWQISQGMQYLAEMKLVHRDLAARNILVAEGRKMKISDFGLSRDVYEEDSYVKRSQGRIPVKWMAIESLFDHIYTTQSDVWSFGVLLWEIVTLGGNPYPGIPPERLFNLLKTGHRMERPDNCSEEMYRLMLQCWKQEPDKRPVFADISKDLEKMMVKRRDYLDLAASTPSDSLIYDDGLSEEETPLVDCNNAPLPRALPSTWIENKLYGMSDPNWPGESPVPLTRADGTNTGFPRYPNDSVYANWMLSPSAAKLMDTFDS

[33] = biological target: Receptor-interacting serine/threonine-protein kinase 2 (Homo sapiens) (UniProt O43353); conditions: Compound concentration 1000.0 nM
[34] = biological target: Serine/threonine-protein kinase TBK1 (Homo sapiens) (UniProt Q9UHD2); conditions: Compound concentration 1000.0 nM
[35] = biological target: Homeodomain-interacting protein kinase 2 (Homo sapiens) (UniProt Q9H2X6); conditions: Compound concentration 1000.0 nM
[36] = biological target: Activated CDC42 kinase 1 (Homo sapiens) (UniProt Q07912); conditions: Compound concentration 1000.0 nM
[37] = biological target: Receptor-interacting serine/threonine-protein kinase 4 (Homo sapiens) (UniProt P57078); conditions: Compound concentration 1000.0 nM
[38] = biological target: Tyrosine-protein kinase receptor Tie-1 (Homo sapiens) (UniProt P35590); conditions: Compound concentration 1000.0 nM
[39] = system: Epidermal growth factor receptor (Homo sapiens), P00533 [UNDEFINED MUTATION]; conditions: Compound concentration 1000.0 nM
[40] = biological target: Mitogen-activated protein kinase kinase kinase 5 (Homo sapiens) (UniProt Q99683); conditions: Compound concentration 1000.0 nM
[41] = biological target: Tyrosine-protein kinase TXK (Homo sapiens) (UniProt P42681); conditions: Compound concentration 1000.0 nM
[42] = biological target: Aurora kinase A (Homo sapiens) (UniProt O14965); conditions: Compound concentration 1000.0 nM
[43] = biological target: Calcium/calmodulin-dependent protein kinase type 1D (Homo sapiens) (UniProt Q8IU85); conditions: Compound concentration 1000.0 nM
[44] = biological target: Protein-tyrosine kinase 6 (Homo sapiens) (UniProt Q13882); conditions: Compound concentration 1000.0 nM
[45] = biological target: Muscarinic acetylcholine receptor M3 (Homo sapiens) (UniProt P20309); conditions: Compound concentration 10.0 uM

Chain of Ephrin type-B receptor 6 (Homo sapiens) (O15197 whole entry): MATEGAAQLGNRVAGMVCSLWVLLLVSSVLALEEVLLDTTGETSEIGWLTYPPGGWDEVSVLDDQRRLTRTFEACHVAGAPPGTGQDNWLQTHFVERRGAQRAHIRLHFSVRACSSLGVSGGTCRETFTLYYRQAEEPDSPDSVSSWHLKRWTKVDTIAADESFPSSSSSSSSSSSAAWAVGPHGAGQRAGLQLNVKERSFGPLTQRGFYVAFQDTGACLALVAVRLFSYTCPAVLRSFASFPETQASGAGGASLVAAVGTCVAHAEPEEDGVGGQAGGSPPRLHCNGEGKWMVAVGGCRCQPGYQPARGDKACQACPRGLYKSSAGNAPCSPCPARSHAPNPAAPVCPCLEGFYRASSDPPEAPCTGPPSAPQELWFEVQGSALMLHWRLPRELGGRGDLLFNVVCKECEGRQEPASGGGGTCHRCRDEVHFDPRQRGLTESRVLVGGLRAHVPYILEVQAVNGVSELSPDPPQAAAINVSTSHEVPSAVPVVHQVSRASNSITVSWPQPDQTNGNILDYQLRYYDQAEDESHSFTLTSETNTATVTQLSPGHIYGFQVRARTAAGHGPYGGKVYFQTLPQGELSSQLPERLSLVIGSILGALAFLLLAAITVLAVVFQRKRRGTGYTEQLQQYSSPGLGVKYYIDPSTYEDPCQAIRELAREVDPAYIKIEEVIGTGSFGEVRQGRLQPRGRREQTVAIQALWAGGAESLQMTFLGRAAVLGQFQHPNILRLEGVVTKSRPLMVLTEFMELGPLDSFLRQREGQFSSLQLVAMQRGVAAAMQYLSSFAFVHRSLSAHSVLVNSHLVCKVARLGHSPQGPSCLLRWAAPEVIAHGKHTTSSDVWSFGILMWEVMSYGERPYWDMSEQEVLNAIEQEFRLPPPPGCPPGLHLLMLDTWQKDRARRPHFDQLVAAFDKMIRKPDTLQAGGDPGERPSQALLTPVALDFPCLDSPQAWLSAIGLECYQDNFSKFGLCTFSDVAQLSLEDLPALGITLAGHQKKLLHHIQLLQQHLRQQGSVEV

SMILES: FC(F)(F)c1ccc2c(c1)nc(-c1cccnc1)n2C1CC1 [MSD-CYP11B2-Negative-control]
- residual activity [1]: 100%
- residual activity [2]: 100%
- inhibition [3]: 6.92%
- residual activity [4]: 100%
- inhibition [5]: -3.97%
- inhibition [6]: 15.3%
- residual activity [7]: 100%
- residual activity [8]: 100%
- residual activity [9]: 100%
- residual activity [10]: 100%
- residual activity [11]: 94%
- residual activity [12]: 96%
- residual activity [13]: 98%
- residual activity [14]: 78%
- residual activity [15]: 100%
- residual activity [16]: 100%
- residual activity [17]: 100%
- residual activity [18]: 100%
- residual activity [19]: 83%
- residual activity [20]: 92%
- residual activity [21]: 100%
- residual activity [22]: 100%
- residual activity [23]: 92%
- residual activity [24]: 100%
- residual activity [25]: 100%
- residual activity [26]: 100%
- residual activity [27]: 100%
- residual activity [28]: 100%
- residual activity [29]: 100%
- residual activity [30]: 100%
- residual activity [31]: 90%
- residual activity [32]: 81%
- residual activity [33]: 100%
- residual activity [34]: 82%
- residual activity [35]: 100%
- residual activity [36]: 100%
- residual activity [37]: 95%
- residual activity [38]: 100%
- residual activity [39]: 100%
- residual activity [40]: 96%
- residual activity [41]: 100%
- residual activity [42]: 98%
- residual activity [43]: 100%
- residual activity [44]: 100%
- inhibition [45]: -1.22%

SMILES: CC(C)(O)c1cncc(-c2nc3ccc(F)cc3n2C2CC2)c1 [MSD-CYP11B2]
- residual activity [1]: 100%
- residual activity [2]: 84%
- inhibition [3]: 74.6%
- residual activity [4]: 100%
- inhibition [5]: 0.87%
- inhibition [6]: 1.47%
- residual activity [7]: 100%
- residual activity [8]: 100%
- residual activity [9]: 95%
- residual activity [10]: 100%
- residual activity [11]: 92%
- residual activity [12]: 84%
- residual activity [13]: 99%
- residual activity [14]: 90%
- residual activity [15]: 100%
- residual activity [16]: 100%
- residual activity [17]: 100%
- residual activity [18]: 100%
- residual activity [19]: 96%
- residual activity [20]: 100%
- residual activity [21]: 100%
- residual activity [22]: 72%
- residual activity [23]: 96%
- residual activity [24]: 100%
- residual activity [25]: 100%
- residual activity [26]: 100%
- residual activity [27]: 100%
- residual activity [28]: 85%
- residual activity [29]: 100%
- residual activity [30]: 100%
- residual activity [31]: 90%
- residual activity [32]: 100%
- residual activity [33]: 100%
- residual activity [34]: 72%
- residual activity [35]: 100%
- residual activity [36]: 100%
- residual activity [37]: 100%
- residual activity [38]: 100%
- residual activity [39]: 100%
- residual activity [40]: 100%
- residual activity [41]: 92%
- residual activity [42]: 94%
- residual activity [43]: 100%
- residual activity [44]: 100%
- inhibition [45]: 1.04%
